The solubility is the concentration that dissolves in the medium under given conditions. The low end stands for little dissolved substance, the high end for much dissolved substance. The Tmax is the time from dosing to the highest level. Usually Cmax stands for the peak of the concentration-time curve. Usually AUC(0-inf) stands for the area under the concentration-time curve extrapolated to infinity. As a reminder, the bioavailability is the share of a dose that reaches the circulation, judged against a reference dose that is usually intravenous. Low readings indicate poor availability, high ones good availability.

Each structure is given as a SMILES string. Values after ≈ are worked out from the molar mass of the structure shown.

The values below come from ChEMBL document CHEMBL3763083, “Sulfasalazine in ionic liquid form with improved solubility and exposure” (Medchemcomm, 2015).

The nature of data set [1]: Solubility of compound in saline solution after 1 hr by LC/MS analysis. The note with it: buffer. In kind it is physicochemical.
A short description of data set [2]: Solubility of compound in phosphate buffer at pH 8 after 1 hr by LC/MS analysis. In kind it is physicochemical. The conditions noted are these: pH 8, 1 h.
In a further data set the test system is Liver. Description: Drug metabolism in rat liver S9 fractions at 1 uM measured at 0 to 60 mins by LC/MS analysis. Format: ADME, subcellular, Liver S9 fraction. The note with it: s9, 1 µM.
A short description of data set [3]: Solubility of compound in stimulated GI fluid at pH 1.1 measured at 15 to 60 mins by LC/MS analysis. The note with it: buffer. Format: ADME.
Data set [4] is described as follows: Solubility of compound in stimulated intestinal fluid at pH 6.8 measured at 0.5 to 3 hrs by LC/MS analysis. The conditions noted are these: simulated gi fluid. In kind it is ADME.
Data set [5] can be described thus: Thermal stability of compound after 30 mins by thermogravimetric analysis. In kind it is physicochemical. The note with it: 0.5 h.
Data set [6] can be described thus: Solubility of compound in methanol after 2 hrs. Format: physicochemical.
Data set [7] can be described thus: Tmax in rat plasma at 50 mg/kg dosed via oral gavage. Format: ADME, organism-based.
Data set [8] in a line: Cmax in rat plasma at 50 mg/kg dosed via oral gavage. In kind it is ADME, organism-based. More on the design: dose 50 mg/kg, route oral.
A short description of data set [9]: AUC(infinity) in rat at 50 mg/kg dosed via oral gavage. Format: ADME, organism-based. Further details: dose 50 mg/kg, route oral, time infinity. The note with it: in vivo.
Data set [10] in a line: Oral bioavailability in rat plasma at 50 mg/kg dosed via gavage. Format: ADME, organism-based.
Data set [11] in a line: Drug recovery in rat bile at 50 mg/kg dosed via oral gavage. In kind it is ADME, organism-based. The conditions noted are these: read-out: Drug recovery.

Take `O=C(O)c1cc(/N=N/c2ccc(S(=O)(=O)Nc3ccccn3)cc2)ccc1O` [SULFASALAZINE]: the solubility in data set [1] was 0.01 mg/mL (≈ 0.0251 mM); in data set [2] it was 3.09 mg/mL (≈ 7.76 mM); in data set [3], “soluble”; in data set [4] it was “soluble”; in [6] it was “soluble”. The Drug metabolism result with Liver is reported as “metabolite_detected”. The T in data set [5] is 253 °C.

Consider `C[N+](C)(C)CCO.O=C([O-])c1cc(/N=N/c2ccc(S(=O)(=O)Nc3ccccn3)cc2)ccc1O`, for which, in data set [7], the Tmax turned out to be 15 min. In [8], this molecule gave a Cmax of 2360 nM. Besides, the figures for the solubility in data set [1], in data set [3] and in data set [4] were 39.32 mg/mL, “soluble” and “soluble”, respectively. Moreover, in the data set with Liver, the Drug metabolism result is on record as “metabolite_detected”. The same molecule displayed an AUC(0-inf) in data set [9] of 9.34 µM·h. Besides, the bioavailability in data set [10] was found to be 5.6%. Besides, the dose excreted in data set [11] worked out at 1.8%. In [5], the T turned out to be 214 °C.
